Here are results for three molecules from patent US5126432A, “Calcium channel modulating substances” (Miles Inc., priority 1988, dated 1992).

One data set has as its system calcium channel. The conditions noted are these: known from the art; cited from earlier work.
Data set [1] deals with dihydropyridine receptors. The data set is described as follows: stability of inhibitory activity to boiling and ashing. It is filed as physicochemical. The note with it: 270° C. for 3 hours. The text has this:
This observed differential activity was further evidence of a specific interaction with the dihydropyridine binding site rather than the non-specific reduction of free ligand concentration.
When this fraction was chromatographed on either a Waters Protein Pak-125 or a TSK-250 gel filtration column using 40% acetonitrile in 0.1% TFA as the mobile phase, the activity (as determined in ligand binding assays described in Example 1c) eluted in a volume less than […] fragment (amino acids 61-63) having a molecular weight of 443.

The nature of data set [2]: dialysis: binding of free [3H]DHP ligand to the fractions. The note with it: 5 mg inside bag, 0.2 nM [3H]DHP, 25° C. overnight. How it is done:
In order to further determine the specificity of action of a particular fraction (i.e., to insure that the fraction was acting competitively on the dihydropyridine receptor and not simply depleting the free ligand), a determination of the amount of free ligand was done by dialysis as follows.
A […] segment of Spectra-por 7 dialysis tubing (0.46 mL/cm) was washed thoroughly with water to remove EDTA and other chemicals. The molecular weight cut-off of this tubing was 1,000. Dialysis was performed in 16 mm glass tubes placed in a shaker incubator at 25° C. overnight. The volume inside the bag (made from closing the tubing by tying it) was 2.5 mL; the outside volume was 10 mL of 50 mM HEPES buffer, pH 7.0. Experiments were done with the [^3 H]DHP present both inside and outside the bag. The concentration of the [^3 H]DHP ligand used was always 0.2 nM. A control using 5 mg bovine serum albumin (BSA) inside the bag was carried out. […] The brain fractions tested were also 5 mg by weight. Dialysis was carried out in the presence of the cocktail of protease inhibitors described supra present both inside and outside the bag. The experiment was terminated by taking representative aliquots from inside and outside the bag (in triplicate). The cpm were then adjusted for total volume.

Entries after “also recorded” stand apart in the source; their conditions may differ.

Take `COC(=O)C1=C(C)NC(C)=C([N+](=O)[O-])C1c1ccccc1C(F)(F)F` (stereo not drawn) [Bay K8644]: in the data set on calcium channel, the “effect on calcium channel current” value was “increases calcium channel current; also recorded: can produce inhibition depending on the precise membrane potential and channel state”.

On to `[Cl-].[Na+]` [NaCl], for which the activity after ashing result in data set [1] is recorded as “maintained activity upon ashing”.

Take “bovine serum albumin: control in dialysis, 5 mg inside the bag”: in data set [2], the “binding of [3H]DHP ligand in dialysis” value is “bind [^3 H]DHP ligand hydrophobically”.
